One block for each compound: values may come before it.
Legend:
[1] = target: T1, PDC-109 (Bos taurus, UniProt P02784); test: ANS fluorescence in presence of PrC; details: 10 mM PrC, 50 µM ANS, 0.05 mg/mL protein; lowers ANS binding
T1 construct: native, purified from bovine seminal plasma (Sephadex G-50 gel filtration, DEAE Sephadex A-25); mature 109 residues, two FnII domains, O-glycosylated; polydisperse oligomers
T1 sequence (P02784 26-134): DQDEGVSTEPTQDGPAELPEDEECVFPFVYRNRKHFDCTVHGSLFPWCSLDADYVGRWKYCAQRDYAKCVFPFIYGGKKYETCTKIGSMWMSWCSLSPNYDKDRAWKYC

[2] = target: T1, PDC-109; test: near-UV CD; format: binding; details: sonicated unilamellar vesicles, 0.1 mM lipid, pH 7.4, room temperature
[3] = target: T1, PDC-109; test: fluorescence titration, Scatchard analysis; format: binding; details: read-out: K a (converted)
[4] = target: T1, PDC-109; test: isothermal titration calorimetry, sequential binding model; details: read-out: Ka × 10^3 (M^-1) (converted)
From the text: isothermal titration calorimetry, sequential binding model on PDC-109

SMILES: C[N+](C)(C)CCOP(=O)([O-])O [PrC]
- ANS fluorescence in presence of PrC [1]: PrC binding leads to a significant decrease in the surface hydrophobicity of the protein

SMILES: CCCCCCCCCCCCCC(=O)OC[C@H](COP(=O)(O)OCC(O)CO)OC(=O)CCCCCCCCCCCCC (some centres unmarked) [DMPG]
- near-UV CD [2]: the protein tertiary structure is altered upon phospholipid binding

- Kd [3]: 32.4 µM
SMILES: O=S(=O)(O)c1cccc2cccc(Nc3ccccc3)c12 [ANS, 8-anilinonaphthalene sulphonic acid]

- Kd [4]: 389 µM
SMILES: O=S(=O)(O)c1cccc2c(-c3ccc(Nc4ccccc4)c4c(S(=O)(=O)O)cccc34)ccc(Nc3ccccc3)c12 [bisANS, 4,4′-Dianilino-1,1′-binaphthyl-5,5′-disulphonic acid]

SMILES: CCCCCCCCCCCCCC(=O)OC[C@H](COP(=O)([O-])OCC[N+](C)(C)C)OC(=O)CCCCCCCCCCCCC [DMPC]
- near-UV CD [2]: the protein tertiary structure is altered upon phospholipid binding

From article PMC3050878, “Correlation of Membrane Binding and Hydrophobicity to the Chaperone-Like Activity of PDC-109, the Major Protein of Bovine Seminal Plasma” (PLoS ONE, 2011)
